# Test system: tight junctions (ZO-1, ZO-2, claudin-1) in Caco-2 cells
# Assay: Tight junction-associated proteins and structure (WB, IFA)
# Format: cell-based, Human
# Conditions: Wa or SA11 MOI = 3, 100 nM
# Procedure: The cells were then washed with PBS, fixed in 4% paraformaldehyde for 20 min, followed by permeabilization in 0.5% Triton X-100 for 10 min and blocking with 5% BSA (Beyotime, China) for 1 h at room temperature. The cells were then incubated with rabbit anti-ZO-1 monoclonal antibody (CST, USA) (1:100) or rabbit anti-RV VP6 polyclonal antibodies (CUSABIO, China) (1:50) for 2 h at room temperature, washed twice with PBS, and incubated with Cy3-conjugated goat anti-rabbit antibodies (Beyotime, China) (1:500) for 1 h at room temperature. In some experiments, the cells were also stained with FITC-conjugated goat anti-RV antibodies (Virostat, USA) (1:100) for 1 h at room temperature and followed by 5 µg/mL 2-(4-amidinophenyl)-6-indolecarbamidine dihydrochloride (DAPI) (Sigma-Aldrich, USA) staining for 10 min. […] Minimal post-processing (image cropping and annotations) was applied through Adobe Illustrator 2019 (Adobe Systems, USA) to ensure readability. […]
# MA104, Caco-2, and HT-29 cells were mock-infected with PBS, infected with RV Wa or SA11 strains (MOI = 3), or treated with 1 µM C16-PAF (C16) for 1 h. […] After protein quantification with a BCA kit (Beyotime, China), the protein samples were mixed with 25 µL 5× SDS loading buffer (Beyotime, China), boiled at 100°C for 5 min, chilled on ice, vortexed for seconds, and centrifuged at 12,000 × g for 3 min at room temperature. […]
compound,measurement,setting,value
COc1cccc(-c2cc(F)ccc2[C@H]2Cc3nc(N)nc(C)c3C(=O)N2)n1 [NVP-HSP990],structural disruption of tight junctions in RV infection,"18 h, ZO-1 immunostaining",effectively restored
same,"expression of tight junction-associated proteins ZO-1, ZO-2, and claudin-1","20 h, WB",facilitated the expression

# Reference: article PMC12817916, “A small-molecule HSP90 inhibitor, NVP-HSP990, alleviates rotavirus infection” (Journal of Virology, 2025)
